Data on six molecules can be found in US10358447B2, “Substituted 2-N-hydroxy-1,3-dioxo-1,2,3,4-tetrahydronaphthyridines, and methods of making and using same” (ARBUTUS BIOPHARMA CORPORATION, priority 2017, dated 2019).

Where two headings read alike, the source gives them in different places.

Type in all cases: cell-based
In assay [1] the test system is plus-strand of HBV rcDNA in HepDE19 cells. The assay can be described thus: HepDE19 assay with bDNA quantitation of the plus-strand of HBV rcDNA. To be noted: Hepatitis B virus. The text has this: (§1) The invention further provides a method of screening compounds for activity against HBV, as exemplified herein. In certain embodiments, the method comprises a HepDE19 assay with bDNA quantitation of HBV rcDNA. HepDE19 cell culture system is a HepG2 (human hepatocarcinoma) derived cell line that supports HBV DNA replication and cccDNA formation in a tetracycline (Tet)-regulated manner and produces HBV rcDNA and a detectable reporter molecule dependent on the production and maintenance of cccDNA (Tavis & Lomonosova, 2015, Antiviral Res. 118:132-138). In certain non-limiting embodiments, HepDE19 (50,000 cells/well) are plated in 96 well collagen-coated tissue-culture treated microtiter plates in DMEM/F12 medium supplemented with 10% fetal bovine serum, 1% penicillin-streptomycin and 1 μg/ml tetracycline and incubated in a humidified incubator at 37° C. and 5% CO2 overnight. Next day, the cells are switched to fresh medium without tetracycline and incubated for 4 hrs at 37° C. and 5% CO2. The cells are treated with fresh Tet-free medium with compounds at concentrations starting at 25 μM and a serial, ½ log, 8-point, titration series in duplicate. The final DMSO concentration in the assay is 0.5%. The plates are incubated for 7 days in a humidified incubator at 37° C. and 5% CO2. Following a 7 day-incubation, the level of rcDNA present in the inhibitor-treated wells is measured using a Quantigene 2.0 bDNA assay kit (Affymetrix, Santa Clara, Calif.) with HBV specific custom probe set and manufacturer's instructions.
In order to differentiate HBV RNaseH inhibitors from other classes of HBV inhibitors (such as, for example, nucleos(t)ide analogs or capsid inhibitors), the assay method is configured by incorporating the quantitation of both the minus-strand and the plus-strand of HBV rcDNA levels using specifically designed HBV probe sets. […] Concurrently, the effect of compounds on cell viability can be assessed using replicate plates, plated at a density of 5,000 cells/well and incubated for 4 days, to determine the ATP content as a measure of cell viability using the cell-titer glo reagent (CTG; Promega Corporation, Madison, Wis.) as per manufacturer's instructions. The plates are read using a Victor luminescence plate reader (PerkinElmer Model 1420 Multilabel counter), and the relative luminescence units (RLU) data generated from each well was calculated as % inhibition of the untreated control wells and analyzed using XL-Fit module in Microsoft Excel to determine EC50 and EC90 (bDNA) and CC50 (CTG) values using a 4-parameter curve fitting algorithm. […]

Assay [2] concerns HA-tagged HBeAg (HBV) in DESHAe82 cells. The assay can be described thus: AlphaLisa eAg assay: HA-HBeAg level in DESHAe82 cell culture (anti-HBV / anti-cccDNA activity). Conditions: Hepatitis B virus, 216 h, read-out: AlphaLisa_eAg EC50 (μM). Here is the method:
Evaluation of anti-HBV activity of the compounds in in vitro cell culture studies was conducted using a modification of the assay system described in Cai et al., 2012, Antimicrobial Agents Chemotherapy 56(8):4277-88 and PCT/EP/2015/06838. In the DESHAe82 cell culture system, the HA epitope-tagged secreted HBV “e antigen” (HBeAg) and HBV precore RNA are produced only from the cccDNA circular template that is formed after HBV replication in absence of Tetracycline (Tet). The DESHAe82 cell line produces high levels of cccDNA synthesis and HA-HBeAg, and high specific readout signals with low noise. Two assay systems, a chemiluminescence ELISA (CLIA) and a proximity […] assay (AlphaLISA) were developed and used for high-sensitivity detection of HA-tagged HBeAg.
To test the compound, DESHAe82 were plated in 96 well tissue-culture treated microtiter plates in DMEM/F12 medium supplemented with 10% fetal bovine serum+1% penicillin-streptomycin with Tet, and incubated in a humidified incubator at 37° C. and 5% CO2 overnight. Next day, the cells were switched to fresh medium without Tet and treated with a test compound, over a range of concentrations (compound was solubilized in 100% DMSO before dilution in cell culture media, and the final DMSO concentration in the assay was 0.5%), and incubated for a duration of 9 days in a humidified incubator at 37° C. and 5% CO2. Untreated negative control samples (0.5% DMSO only) were included on each plate in multiple wells. On day 9, media was harvested and removed to a fresh plate, and level of HA-HBeAg was determined by CLIA or AlphaLISA. Anti-cccDNA activity of each test compound concentration was calculated as a percentage of HA-HBeAg signal detected in negative control samples versus compound-treated samples, and EC50 value for each compound was defined as the concentration that reduced the HA-HBeAg signal by 50%.

Assay [3] concerns HBV rcDNA in HepDE19 cells. The assay is described as follows: HepDE19 assay with bDNA quantitation of HBV rcDNA. Conditions: Hepatitis B virus.
From the text: as §1
In order to differentiate HBV RNaseH inhibitors from other classes of HBV inhibitors (such as, for example, nucleos(t)ide analogs or capsid inhibitors), the assay method is configured by incorporating the quantitation of both the minus-strand and the plus-strand of HBV rcDNA levels using specifically designed HBV probe sets. This is based on the observation that inhibition of RNaseH enzyme activity results in a block of the synthesis of the plus strand synthesis by the viral polymerase that follows the synthesis of the minus-strand of rcDNA (Guo, et al., 2007, J. Virol. 81:12472-12484). […] In contrast, treatment with HBV inhibitors such as a nucleos(t)ide analogs or capsid inhibitors reduces production of both strands of HBV rcDNA in cells. Concurrently, the effect of compounds on cell viability can be assessed using replicate plates, plated at a density of 5,000 cells/well and incubated for 4 days, to determine the ATP content as a measure of cell viability using the cell-titer glo reagent (CTG; Promega Corporation, Madison, Wis.) as per manufacturer's instructions. The plates are read using a Victor luminescence plate reader (PerkinElmer Model 1420 Multilabel counter), and the relative luminescence units (RLU) data generated from each well was calculated as % inhibition of the untreated control wells and analyzed using XL-Fit module in Microsoft Excel to determine EC50 and EC90 (bDNA) and CC50 (CTG) values using a 4-parameter curve fitting algorithm.
HepDE19 cell culture system is a HepG2 (human hepatocarcinoma) derived cell line that supports HBV DNA replication and cccDNA formation in a tetracycline (Tet)-regulated manner and produces HBV rcDNA and a detectable reporter molecule dependent on the production and maintenance of cccDNA (Guo, et al., 2007, J. Virol. 81:12472-12484). HepDE19 (50,000 cells/well) were plated in 96 well collagen-coated tissue-culture treated microtiter plates in DMEM/F12 medium supplemented with 10% fetal bovine serum, 1% penicillin-streptomycin and 1μg/ml tetracycline and incubated in a humidified incubator at 37° C. and 5% CO2 overnight. Next day, the cells were switched to fresh medium without tetracycline and incubated for 4 hrs at 37° C. and 5%CO2. The cells were treated with fresh Tet-free medium with compounds at concentrations starting at 25 μM and a serial, ½ log, 8-point, titration series in duplicate. The final DMSO concentration in the assay was 0.5%. […]

Setting [4] is: 168 h, HepDE19 cells, 7 day incubation, plus-strand probe set, top concentration 25 μM, read-out: bDNA_RC DNA PS EC50.
The mark [5] stands for this setting: 168 h, HepDE19 cells, 7 day incubation, top concentration 25 μM, read-out: bDNA_RC DNA EC50.
Where [6] appears, read: HepDE19, 168 h, read-out: bDNA_RC DNA EC50 (μM).

As to `COc1ccc2c(n1)C(C(=O)NCc1ccc(Cl)cc1)C(=O)N(O)C2=O` (stereo not shown) [Compound 5, N-(4-chlorobenzyl)-6-hydroxy-2-methoxy-5,7-dioxo-5,6,7,8-tetrahydro-1,6-naphthyridine-8-carboxamide], the results for the EC50 in assay [1] (setting [4]), in assay [2] and in assay [3] (setting [5]) were over 25 µM, over 50 µM and over 25 µM, respectively.
Turning to `COc1ccc2c(n1)C(C(=O)Nc1ccc(F)cc1)C(=O)N(O)C2=O` (stereo not shown) [Compound 4, N-(4-fluorophenyl)-6-hydroxy-2-methoxy-5,7-dioxo-5,6,7,8-tetrahydro-1,6-naphthyridine-8-carboxamide], the EC50 in assay [2] was 9.6 µM; in assay [3] (setting [6]), over 25 µM.
On to `COc1ccc2c(n1)C(C(=O)Nc1ccc(Cl)cc1)C(=O)N(O)C2=O` (stereo not shown) [Compound 3, N-(4-chlorophenyl)-6-hydroxy-2-methoxy-5,7-dioxo-5,6,7,8-tetrahydro-1,6-naphthyridine-8-carboxamide], for which the EC50 turned out to be 16 µM in assay [1] (HepDE19, 168 h, read-out: bDNA_RC DNA PS EC50 (μM)); 9.6 µM in assay [2]; 9.4 µM in assay [3] (setting [6]).
Regarding `O=C(NCc1ccc(F)cc1)C1C(=O)N(O)C(=O)c2ccc(O)nc21` (stereo not shown) [Compound 6, N-(4-fluorobenzyl)-2,6-dihydroxy-5,7-dioxo-5,6,7,8-tetrahydro-1,6-naphthyridine-8-carboxamide], the results for the EC50 in assay [1] (setting [4]), in assay [2] and in assay [3] (setting [5]) were 15 µM, 3.6 µM and over 25 µM, respectively.
Take `CCOC(=O)C1C(=O)N(O)C(=O)c2ccc(OC)nc21` (stereo not shown) [Compound 1, Ethyl 6-hydroxy-2-methoxy-5,7-dioxo-5,6,7,8-tetrahydro-1,6-naphthyridine-8-carboxylate]: the EC50 in assay [2] was 2.4 µM; in assay [3] (setting [5]) it was over 25 µM.
As for `CCN(CC)C(=O)C1C(=O)N(O)C(=O)c2ccc(OC)nc21` (stereo not shown) [Compound 2, N,N-diethyl-6-hydroxy-2-methoxy-5,7-dioxo-5,6,7,8-tetrahydro-1,6-naphthyridine-8-carboxamide], the EC50 was 11.2 µM in assay [1] (setting [4]), 1.5 µM in assay [2] and over 25 µM in assay [3] (setting [5]).

One may read the EC50 as the concentration giving half of the maximal effect.
